Reference: paper PMC8945122 (ACS Omega, 2022)
Entries after “also recorded” stand apart in the source; their conditions may differ.

Tests used:
[1] = target: soluble T cell receptor P14; assay: SPR
endogenous CD8^+ T cells = details: mouse, in vivo; cited from earlier work
[2] = tested on: H-2D^b/peptide complexes (pMHC); set-up: species or system murine; details: for melting temperature (Tm): pH 7.4
TCR P14 = assay type: binding
H-2D^b = H-2D^b (Mus musculus, UniProt P01899); set-up: species or system murine
Chain of H-2D^b (P01899 whole entry, looked up): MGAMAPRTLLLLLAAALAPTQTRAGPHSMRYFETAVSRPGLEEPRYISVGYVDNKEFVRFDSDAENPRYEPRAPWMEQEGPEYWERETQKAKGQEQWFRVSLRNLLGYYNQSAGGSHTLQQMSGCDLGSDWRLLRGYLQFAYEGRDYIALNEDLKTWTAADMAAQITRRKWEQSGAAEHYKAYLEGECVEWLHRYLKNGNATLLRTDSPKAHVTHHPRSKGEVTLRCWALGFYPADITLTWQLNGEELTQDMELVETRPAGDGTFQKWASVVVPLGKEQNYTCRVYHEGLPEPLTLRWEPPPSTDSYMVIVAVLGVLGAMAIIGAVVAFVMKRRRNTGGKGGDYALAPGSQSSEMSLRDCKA

Substance	melting temperature (Tm) [2]	thermal stability of pMHC (in words) [2]	binding by TCR P14 (in words) (TCR P14)	conformation of p6f / p4Y side chains and H155 (H-2D^b)	distances H-2D^b W73:NH–p6:CO and H-2D^b Y156:OH–p6:NH (H-2D^b)	pMHC complex formation (H-2D^b)	further results
H-2D^b/gp33 (from UniProt P01887) (peptide-MHC)	–	–	–	–	–	–	Kd [1]: 6.3 µM
KAPFNFATM [V3P_Y4F]	–	–	–	–	–	–	recognition of Y4F-presenting infected cells by endogenous CD8^+ T cells (endogenous CD8^+ T cells): efficiently restores recognition of infected cells presenting Y4F by endogenous CD8^+ T cells
KAPYNFATM [V3P]	66.0 °C	–	–	–	–	–	–
KAPYNfATM [V3P_F6f]	64.0 °C	slight decrease in stability	reduced P14 affinity; also recorded: significantly reduced binding by the H-2D^b/gp33-specific TCR P14	prevents the H-2D^b residue H155 to rotate counter clock wise and to assume a TCR-bound-like conformation	both distances increase in comparison to the corresponding structures with the L-amino acid	does not compromise complex formation	–
KAVYNFATM [gp33, reference compound]	63.5 °C	–	–	–	–	–	–
KAVYNfATM [F6f]	61.5 °C	slight decrease in stability	reduced P14 affinity; also recorded: significantly reduced binding by the H-2D^b/gp33-specific TCR P14	the side chain of p6f takes a different conformation in H-2D^b/F6f compared to H-2D^b/gp33	both distances increase in comparison to the corresponding structures with the L-amino acid	does not compromise complex formation	–
